According to patent US12044651B2, “Sensor device and methods” (SCENTIAN BIO LIMITED, priority 2016, dated 2024):

Tests used:
Format in all cases: binding
[1] = target: T1, Or10a (Drosophila melanogaster, UniProt Q9VYZ1); assay: EIS sensor, Or10a nanodiscs on gold electrode (Example 4)
T1 sequence (Q9VYZ1 1-406): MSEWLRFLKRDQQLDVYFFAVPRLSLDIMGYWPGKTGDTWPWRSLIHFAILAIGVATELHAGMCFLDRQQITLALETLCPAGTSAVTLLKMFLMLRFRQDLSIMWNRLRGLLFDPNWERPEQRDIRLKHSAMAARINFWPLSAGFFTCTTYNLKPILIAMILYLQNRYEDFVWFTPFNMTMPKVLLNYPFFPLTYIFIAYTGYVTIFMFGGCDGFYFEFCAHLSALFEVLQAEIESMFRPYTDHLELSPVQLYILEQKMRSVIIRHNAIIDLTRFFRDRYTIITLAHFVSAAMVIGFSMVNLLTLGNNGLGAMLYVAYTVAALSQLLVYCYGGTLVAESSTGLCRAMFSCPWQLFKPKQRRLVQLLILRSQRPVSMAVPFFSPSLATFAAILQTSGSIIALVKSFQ

[2] = target: T2, OR35a (Drosophila melanogaster, UniProt Q9V3Q2); assay: EIS sensor, Or35a nanodiscs on gold electrode (Example 4)
T2 sequence (Q9V3Q2 1-409): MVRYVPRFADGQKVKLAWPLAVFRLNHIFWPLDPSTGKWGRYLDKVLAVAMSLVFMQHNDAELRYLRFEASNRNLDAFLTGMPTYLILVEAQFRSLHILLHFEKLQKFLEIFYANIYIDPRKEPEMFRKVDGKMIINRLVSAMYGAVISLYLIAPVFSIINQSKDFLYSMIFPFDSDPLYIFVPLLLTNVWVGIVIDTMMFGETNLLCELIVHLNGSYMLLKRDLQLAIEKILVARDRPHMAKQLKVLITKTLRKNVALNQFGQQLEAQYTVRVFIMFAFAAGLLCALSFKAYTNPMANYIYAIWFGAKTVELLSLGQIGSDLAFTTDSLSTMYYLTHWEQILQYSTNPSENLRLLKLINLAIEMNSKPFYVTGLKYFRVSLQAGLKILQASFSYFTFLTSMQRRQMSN

[3] = target: T2, OR35a; assay: CNT-FET sensor, OR35a nanodiscs via his-tag/Ni-NTA (Example 2); conditions: for real time source-drain current response: OR35a nanodiscs 1:10, E-2-hexenal at 64 pM, methyl hexanoate 70 nM to 500 μM
[4] = target: T3, Or22a (Drosophila melanogaster, UniProt P81909); assay: EIS sensor, Or22a liposomes on gold electrode, optimized conditions (Example 5)
T3 sequence (P81909 1-397): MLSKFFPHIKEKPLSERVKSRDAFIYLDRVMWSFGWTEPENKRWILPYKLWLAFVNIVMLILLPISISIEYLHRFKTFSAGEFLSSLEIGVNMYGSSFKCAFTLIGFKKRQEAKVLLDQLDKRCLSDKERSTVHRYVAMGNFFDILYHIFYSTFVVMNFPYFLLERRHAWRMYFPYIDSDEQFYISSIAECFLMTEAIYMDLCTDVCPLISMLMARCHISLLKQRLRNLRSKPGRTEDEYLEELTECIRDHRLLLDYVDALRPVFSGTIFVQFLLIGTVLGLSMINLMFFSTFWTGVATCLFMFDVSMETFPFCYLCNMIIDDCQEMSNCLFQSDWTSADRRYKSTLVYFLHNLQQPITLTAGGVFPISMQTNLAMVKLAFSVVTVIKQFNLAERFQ

Row | LOD ([1]; EIS) [fM] | EIS response to control ligand [2] | EIS response to control ligand [4] | Structure (SMILES) | EIS response to control ligand [1] | LOD ([2]; EIS) [fM] | concentration to which the sensor demonstrates a response in real time ([3]; OR35a nanodisc functionalized CNT FET) [pM] | real time source-drain current response [3] | ΔI/I0 change ([3]; at 64 pM, OR35a nanodiscs 1:10 dilution) [%] | EC50 ([3]; present study, Table 4) [nM] | Sensitivity limit ([3]; present study, Table 4) [pM] | concentration at which clear electronic response starts ([3]; real time current measurement mode) [fM] | LOD ([4]; EIS) [fM]
1 |  |  |  | CCC/C=C/C=O [E2-hexenal] | do not respond | < 1 | 64 | immediate large decrease | 10 | ~0.3 | 0.001 | 1 | 
2 |  |  |  | CCCCCC(=O)OC [methyl hexanoate] |  |  |  | no clear response |  |  |  |  | 10
3 | 10 | does not respond | do not respond | COC(=O)c1ccccc1O [methyl salicylate] |  |  |  |  |  |  |  |  | 
